In patent publication US20140328951A1, “Composition for Preventing and Treating Vision Deterioration and Age-Related Macular Degeneration through Retinal Repair Using Ginseng/Red Ginseng Extracts and Ginsenoside” (GBIOMIX. CO., LTD., priority 2011, published 2014):

Experiments:
[1] = tested on: human Bruch's membrane; experiment: Hydraulic conductivity of Bruch's membrane in open-type Ussing chambers; conditions: 24 hours incubation
Method: Bruch's samples were mounted in open-type Ussing chambers and perfused with Tris-HCl buffer. Eluted samples (fluid coming through Bruch's membrane) were collected and measured for fluid transport. Control was perfused with Tris-HCl buffer whilst others were perfused with ginseng fractions for 24 hours.
Transport was tested as described in Example 3, and measured after 24 hours incubation with ginsenosides.
Transport was tested as described in Example 3, and measured after 24 hours incubation with 10% red ginseng extract.

[2] = tested on: Retinal Pigment Epithelium (RPE) of Pig Eyes; experiment: Release of MMPs from RPE of pig eyecups (gelatin zymography); type: cell-based; conditions: pig eyecup
Method: Pig whole eyecup preparations of RPE were used in these experiments. Standard buffer for incubations utilised […] supplemented with foetal calf serum and antibiotics. Eyecups were incubated in this basal medium as control and in medium containing ginseng extract. Following a 6-24 hour incubation, the incubating medium was collected and subjected to gelatin zymography to analyse the type and level of MMP species present. In control medium, both pro- and active MMP 2&9 species are released continuously from the RPE (FIG. 7). […] This effect of KRG is conducive for regenerating Bruch's membrane. […]

[3] = 6-24 hour incubation, gelatin zymography, Ginseng extract at 10%

SMILES	Effect on hydraulic conductivity of human Bruch's membrane (in words) ([1]; 190 ug/ml)	Fold change in hydraulic conductivity over basal ([1]; 190 ug/ml, 5 donors)	Release of active MMP2 from the RPE [2, 3]	Release of pro-MMP2 from the RPE [2, 3]	Release of pro-MMP9 from the RPE [2, 3]	Effect on hydraulic conductivity of human Bruch's membrane (in words) ([1]; 200 ug/ml)	Fold change in hydraulic conductivity over basal ([1]; 200 ug/ml, 1 donor)	Activated HMW1 level [2, 3]	Release of active MMP9 from the RPE [2, 3]	Release of MMPs from the RPE (overall) ([2]; FIG. 7)
CC(C)=CCC[C@](C)(O[C@@H]1O[C@H](CO)[C@@H](O)[C@H](O)[C@H]1O)[C@H]1CC[C@]2(C)[C@@H]1[C@H](O)C[C@@H]1[C@@]3(C)CC[C@H](O)C(C)(C)[C@@H]3CC[C@]12C [Compound K, 20-O-β-d-glucopyranosyl-20(S)-protopanaxadiol]	increased hydraulic conductivity	1.45 ± 0.15	consistently increased	consistently increased	consistently increased	–	–	–	–	–
CC(C)=CCC[C@](C)(O[C@@H]1O[C@H](CO[C@@H]2O[C@H](CO)[C@@H](O)[C@H](O)[C@H]2O)[C@@H](O)[C@H](O)[C@H]1O)[C@H]1CC[C@]2(C)[C@@H]1[C@H](O)C[C@@H]1[C@@]3(C)CC[C@H](O[C@@H]4O[C@H](CO)[C@@H](O)[C@H](O)[C@H]4O[C@@H]4O[C@H](CO)[C@@H](O)[C@H](O)[C@H]4O)C(C)(C)[C@@H]3CC[C@]12C [Rb1]	–	–	did increase	did increase	effective in reducing the level of pro-MMP9	increased	1.27	increased activated HMW1 levels	without effect	–
CC(C)=CCC[C@](C)(O[C@@H]1O[C@H](CO)[C@@H](O)[C@H](O)[C@H]1O)[C@H]1CC[C@]2(C)[C@@H]1[C@H](O)C[C@@H]1[C@@]3(C)CC[C@H](O)C(C)(C)[C@@H]3[C@@H](O[C@@H]3O[C@H](CO)[C@@H](O)[C@H](O)[C@H]3O)C[C@]12C [Rg1]	–	–	–	–	increased the amount of pro-MMP9	increased	1.2	–	–	without effect
